For one assay, the system named is CD8 T cells. Kind of assay: CD69 expression on aCD3/aCD28 stimulated isolated human CD8 T cells (flow cytometry). The conditions noted are these: T-cell, 24 h after TCR stimulation, read-out: Activity Class CD69 (CD8). The assay is classed as cell-based. In outline: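 Isolated CD4 and CD8 T cells plated at 80000 cells per well in Xvivo medium and stimulated with anti-CD3/28 mAbs in presence of compound. CD69 expression measured by flow cytometry 24 h after TCR stimulation.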
On the technique in general: A flow cytometer gives signals particle by particle.

The next assay concerns human CD19+ B-cells. Nature of the assay: Cytokine production in IgM-stimulated isolated human CD19+ B-cells. The assay is classed as cell-based. Conditions: for EC50: Homo sapiens, B-cell. As to the method:
Buffy coats were obtained from a local hospital, diluted 3 fold with PBS and layered onto an isotonic Ficoll separating solution d=1.077 g/mL in 50 mL centrifuge tubes. The tubes were centrifuged at 914 g for 25 min at room temperature with the brakes off. The PBMC layer was removed and washed twice with ice-cold PBS. Erythrocytes were lysed by addition of ddH2O and cells were resuspended in X-Vivo15 (Lonza). CD19+ B cells were isolated from PBMCs by negative selection with the aid MACs kits (Miltenyi), according to manufacturer's instructions. Purified fractions were >95% CD19-positive as judged by antibody staining and assessment by cytometry. B-cells were stimulated by adding varying concentrations of human IgM (1.25-20 μg/mL goat F (ab′) 2 anti human IgM-LE/AF, Biozol) in the presence of example 1. Cells were incubated for 18 h at 37° C., 5% CO2. Assay plates were centrifuged at 400 g for 5 min and supernatants harvested. Cytokine concentration in tissue culture supernatants were determined with MSD or HTRF kits (MSD and Cisbio), according to manufacturer's instructions.

The test system of assay [1] is TCR-mediated activation of CD4 and CD8 cells. Kind of assay: Anti-CD3 PD model in mice: CD69 on splenic T-cells, plasma cytokines. Conditions: for CD4+ / CD8+ / CD69+ / CD69+ in CD4+ / CD69+ in CD8+: spleen flowcytometry; for CD4+ / CD8+ / CD69+ / CD69+ in CD4+ / CD69+ in CD8+ / IFN-γ / IL-2 / IL-6 / IL-10 / TNF-α: t=4.0 h; for IFN-γ / IL-2 / IL-6 / IL-10 / TNF-α: terminal plasma. It counts as in vivo, mouse. The text has this:
Detection of antigen-specific T cell activation and proliferation in vivo is technically challenging since it requires the development and validation of research reagents to detect low-frequency T cells specific for a cognate antigen and also the establishment of specific measurement procedure for following cellular activation and/or proliferation in blood or secondary lymphoid organs. As a surrogate model for the determination of polyclonal T-cell activation in mice, a pharmacological system was designed and employed where adult […] mice were injected with anti-CD3 antibody to elicit TCR triggering and responses of a broad population of peripheral T-cells. To quantitatively determine T-cell responses, systemic IL-2, TNF-alpha and IFN-gamma levels were measured in blood serum as well as the expression of the early activation marker CD69 on splenic CD4 or CD8 T-cells […] after treatment.
It was investigated whether the oral application of compound affected the low-level of activation of a major subset of splenic T-cells by injection of anti-CD3 antibody as exemplified by increased serum levels of IL-2, IFN-gamma and TNF-alpha vis-à-vis untreated mice as well as an increase of CD69-expressing splenic T-cells from 2-10% to 15-20%.
[…] Compound example 1 was dosed twice orally as suspension (0.5% methylcellulose in water) at t=−1.0 h and t=1.0 h. • 3. Mice were terminated at t=4.0 h and their spleens and plasma harvested for flow cytometry and cytokine analysis respectively. • 4. Cytokine concentrations in terminal plasma samples were determined with MSD kits according to manufacturer's instructions.

The test system of another assay is M21 melanoma cells. Kind of assay: M21 viability (number of living cells) with or without CD8 cells. It counts as cell-based, human. As to the method: Isolated PBMCs, NK cells or CD8 positive cells were plated in Xvivo medium at 1.5*10^5 cells per in 96 well culture plates in the presence of 0.3*10^4 tumor cells where indicated. Cytokine secretion was determined by ELISA, immune cell activation (using Beckman-Coulter Abs CD25-PC5, CD69-PC7), cell viability and numbers by flow cytometry (Beckman-Coulter FC500 or Gallios) using 7-AAD exclusion as criterion for living cells. CD8-positive immune cells were isolated from PBMCs and were incubated with and without compound example 67, either alone or in co-culture with M21 melanoma cells.

The values below come from patent US10472341B2, “Bicyclic tetrahydrothiazepine derivatives useful for the treatment of neoplastic and/or infectious diseases” (APEIRON BIOLOGICS AG, priority 2015, dated 2019).

Counter-ions that a name gives are not always drawn. Some results are limits rather than exact numbers.

In the case of `Cl.N[C@H]1CS(=O)(=O)c2cc(F)c(C(=O)NCCCC(F)(F)F)cc2N(Cc2ccc(Cl)cc2)C1=O` [Example 70, (3R)-3-amino-5-[(4-chlorophenyl)methyl]-8-fluoro-1,1,4-trioxo-N-(4,4,4-trifluoro-butyl)-2,3,4,5-tetrahydro-1λ^6,5-benzothiazepine-7-carboxamide hydrochloride], the EC50 in the assay on CD8 T cells is under 1.58 µM.
In the case of `N[C@H]1CS(=O)(=O)c2cc(F)c(C(=O)NC3CC3(F)F)cc2N(Cc2ccc(Cl)cc2)C1=O` (stereo partly drawn) [Example 1, (3R)-3-amino-5-[(4-chlorophenyl)methyl]-N-(2,2-difluorocyclopropyl)-8-fluoro-1,1,4-trioxo-2,3,4,5-tetrahydro-1λ^6,5-benzothiazepine-7-carboxamide hydrochloride], in the assay on human CD19+ B-cells (IL-6, IgM 1.25 μg/mL), the EC50 was 2.45 µM and the “Fold Diff Mean” value is recorded as 1.61. In the assay on human CD19+ B-cells (IL-6, IgM 5 μg/mL), the EC50 is 4.68 µM and the “Fold Diff Mean” value was determined as 1.92. In the assay on human CD19+ B-cells (IL-6, IgM 20 μg/mL), the EC50 is 3.24 µM and the “Fold Diff Mean” value is given as 1.92. Besides, in the assay on human CD19+ B-cells (TNF-α, IgM 1.25 μg/mL), the EC50 is 3.31 µM and the “Fold Diff Mean” value is on record as 1.64. Besides, in the assay with human CD19+ B-cells (TNF-α, IgM 5 μg/mL), the EC50 is 4.47 µM and the “Fold Diff Mean” value came to 2.08. Moreover, in the assay with human CD19+ B-cells (TNF-α, IgM 20 μg/mL), the EC50 was 2.95 µM and the “Fold Diff Mean” value is on record as 1.87. For the same compound, in assay [1] (mice, anti-CD3 i.p., compound oral, five hours), the “TCR-mediated activation of CD4 and CD8 cells in vivo” value was “is able to substantially enhance TCR-mediated activation of CD4 and CD8 cells in vivo”. In assay [1] (25 mg/kg dosed twice orally), the “CD4+” value amounted to 22.95%, the “CD8+” value was 16.33%, the “CD69+” value was 12.65% and the “CD69+ in CD4+” value is 26.75%. Also, in assay [1] (25 mg/kg dosed twice orally), the “CD69+ in CD8+” value was 32.40%, the IFN-γ is reported as 5.26 pg/mL, the IL-2 came to 391.33 pg/mL and the IL-6 was found to be 461.65 pg/mL. Moreover, in assay [1] (25 mg/kg dosed twice orally), the IL-10 came out at 39.88 pg/mL and the TNF-α worked out at 46.78 pg/mL. Moreover, in assay [1] (50 mg/kg dosed twice orally), the “CD4+” value worked out at 22.86%, the “CD8+” value is 16.42%, the “CD69+” value came out at 17.06% and the “CD69+ in CD4+” value was determined as 32.14%. Further, in assay [1] (50 mg/kg dosed twice orally), the “CD69+ in CD8+” value came out at 46.44%, the IFN-γ is 12.99 pg/mL, the IL-2 amounted to 849.50 pg/mL and the IL-6 is given as 1186.80 pg/mL. In assay [1] (50 mg/kg dosed twice orally), this compound yielded an IL-10 of 50.88 pg/mL and a TNF-α of 97.78 pg/mL. In assay [1] (100 mg/kg dosed twice orally), the “CD4+” value is reported as 23.18%, the “CD8+” value was 16.70%, the “CD69+” value worked out at 28.58% and the “CD69+ in CD4+” value came to 47.50%. Also, in assay [1] (100 mg/kg dosed twice orally), the “CD69+ in CD8+” value is given as 63.96%, the IFN-γ is 50.77 pg/mL, the IL-2 is on record as 1413.82 pg/mL and the IL-6 was found to be 2185.05 pg/mL. In assay [1] (100 mg/kg dosed twice orally), this compound displayed an IL-10 of 68.38 pg/mL and a TNF-α of 170.92 pg/mL.
For `CCCCNC(=O)c1ccc2c(c1)N(Cc1ccc(OC(F)(F)F)cc1)C(=O)[C@@H](N)CS2(=O)=O.Cl` [Example 67, (3R)-3-amino-N-butyl-1,1,4-trioxo-5-{[4-(trifluoromethoxy)phenyl]methyl}-2,3,4,5-tetrahydro-1λ^6,5-benzothiazepine-7-carboxamide hydrochloride], the “M21 Viability [Number of Living Cells] average” value in the assay on M21 melanoma cells (0.03 μM, CD8 cells & M21) is on record as 13077.00 Number of Living Cells; with M21 melanoma cells (0.1 μM, CD8 cells & M21), 11586.67 Number of Living Cells; in the assay on M21 melanoma cells (0.3 μM, CD8 cells & M21), 9525.67 Number of Living Cells; in the assay with M21 melanoma cells (1 μM, CD8 cells & M21), 3916.67 Number of Living Cells; with M21 melanoma cells (3 μM, CD8 cells & M21), 3604.00 Number of Living Cells; with M21 melanoma cells (10 μM, CD8 cells & M21) it was 3448.67 Number of Living Cells. Further, the “M21 Viability [Number of Living Cells] average” value in the assay on M21 melanoma cells (10 μM, M21 only (no CD8 cells)) is given as 18139 Number of Living Cells. In the assay on M21 melanoma cells (immune cell cocultures with M21 tumor cells), the viable tumor cells result is on record as “strong reduction in viable tumor cells”.
